One data set relates to C286.8A. Description: Competitive EIA, peptide epitope mapping of monoclonal antibody C286.8A. Format: binding, Murine. As to conditions: Figure 4; plates coated with 50 ng of synthetic APP 695 (597-638); C286.8A (80 ng of IgG) preincubated 60 min at room temperature with competitor peptide.
Data set [1] concerns human brain P-2 derived aprotinin binding pool Y protease (chymotryptic-like serine protease). The data set is described as follows: Immunoblot assay of APP degradation by the pool Y serine protease. In kind it is biochemical. The note with it: pool Y 14 ug/ml, APP 35 nM. On the procedure: Reactions were initiated at 37°C by enzyme addition to achieve the following initial component concentrations in a 16 ul volume: pool Y # 3-5 (14 ug/ml) after purification on a superdex 75 column, APP (35 nM), in 30 mM Mes buffer pH 6.5. Reactions were terminated by addition of 7.5 ul of 3X sample buffer. Immunoblots were developed using the rabbit antiserum to the APP C-terminal domain according to example 8. […] The following controls were also run: no inhibitor (lane 12), ethanol (lane 3), methanol (lane 5), pool Y only (lane 2), APP only at time zero (lane 13) and 4 hr (lane 14). Lanes 1 and 7 respectively show prestained Mr markers and the C-100 standard. Panel (b) 1.8 uM alpha-1-antichymotrypsin (lane 2), 156 uM TLCK (lane 3), 46 uM chymotrypsin inhibitor I (lane 4), 119 uM chymotrypsin inhibitor II (lane 5), 4 uM alpha-2-antiplasmin (lane 6), 51 uM alpha-1-antitrypsin (lane 7), 98 uM chymostatin administered in DMSO (lane 10), 153 uM methanolic TPCK (lane 12). Controls included: no inhibitor (lane 8), DMSO (lane 11), and methanol (lane 13). Pre-stained molecular weight markers and C-100 standards were applied to lanes 1 and 9 respectively. Incubation times of 4 and 2 hr were used in panels a) and b) respectively.
• i) Sub-cellular fractionation. This was performed essentially as described in Method 1, above. • ii) Solubilization. This was performed essentially as described in Method 1, above. • iii) Aprotinin-sepharose chromatography. Soluble (230 mg), P-2 (216 mg) or microsomal fraction (47 mg) described above was applied to a column of aprotinin sepharose (Sigma, catalog # 42268, 1.5 X 10 cm), previously equilibrated with 20 mM Tris HCl buffer pH 7.0. Once loaded the column was washed with equilibration buffer (100 ml), and then eluted with 60 ml of 50 mM sodium acetate buffer pH 5.0 containing 500 mM sodium chloride. The flow rate was 1.0 ml/min throughout. Eluted fractions (4 ml) were monitored at 280 nm, analysed using the Bradford protein assay, and examined for APP C-terminal processing activity as described in Example 8, using recombinant APP derived by expression in a baculo virus system. […] Active fractions from the purification of the P-2 fraction on aprotinin-sepharose were pooled, dialyzed against 50 mM Tris-HCl pH 7.5 and applied to a mono-Q column (HR 5/5), previously equilibrated with dialysis buffer. Once loaded, the column was eluted essentially as described in Method 1. above. Active fractions (2 ml), were monitored for A 280 nm, total protein (Bradford assay), and for their capacity for baculo virus derived APP C-terminal processing. […] Pools X, Y, and Z were each concentrated to either 2 ml (pool X and Y) or 3.6 ml (pool z) and separately applied to a Superdex 75 column (Pharmacia, Piscataway NJ.) previously equilibrated with 50 mM Tris-HCl pH 7.5, containing 150 mM sodium chloride. Once loaded, the column was eluted with equilibration buffer. Chromatography was performed at a flow rate of 1.0 ml/min throughout. Fractions (1 ml) were monitored for A 280 nm, total protein (Bradford assay) and for C-terminal processing of baculo expressed APP. The gel filtration was calibrated by chromatography of each of the following standard proteins: Thyroglobulin (670 kDa), bovine gamma globulin (158 kDa), ovalbumin (44 kDa), myoglobin (17.5 kDa) and vitamin B 12 (1.35 kDa).

The test system of data set [2] is human AD brain fraction P2 VII APP degrading activity. The data set is described as follows: Immunoblot assay of APP 695 degradation by Mono-Q pool P2 VII. In kind it is biochemical. As to conditions: trial A, PMSF 0.8mM, pH 6.5, 24 hrs, 37°C.
Protocol: ii) Solubilization. The membranous control or AD subfractions (P-2 or M) were solubilized by adjusting to the following conditions: 2% (v/v) Triton X-100 containing 50 mM Tris HCl buffer, pH 7.5. After stirring at 4°C for 3.5 hrs, the suspensions were centrifuged at 105,000 g x 60 min in a Beckman 70 Ti rotor. The following final protein concentrations were used in solubilization, for P-2 (3.9 to 4.0 mg/ml); and for M (1.4 to 1.6 mg/ml). Solubilized supernatants were stored at -70°C for later use. The soluble fraction was not treated with detergent but rather was adjusted to 50 mM in Tris HCl, pH 7.5, by the addition of stock 1M buffer. iii) Ion-exchange chromatography. Chromatography was performed using a Gilson gradient liquid chromatograph (model 305 and 306 pumps) equipped with a 50 ml Rheodyne stainless steel loop injector model 7125, and connected to a Mono Q HR 10/10 column (Pharmacia, Piscataway, NJ). Absorbance of column effluent was monitored at 280 nm using a Pharmacia UV-M detector and a Kippen-zonen chart recorder. […] In the initial studies, eluted fractions were monitored for A280 nm, total protein (Bradford assay), and peptidase activity (as decsribed in Examples 2 and 3). […] Fractions were monitored for A 280 nm, total protein (Bradford assay), peptidase activity, and activity for C-terminal processing of recombinant APP. […]
The subject of another data set is cathepsin D. Description: Cathepsin D (2.5 ug/ml), sodium chloride (75 mM), 135 mM in each of tris, Mes and acetate buffer pH 5.0. The note with it: human, 37 C.
Data set [3] concerns cathepsin D (human liver, Cal Biochem). Description: Cathepsin D (2.8 ug/ml) in cocktail buffer 130 mM in each of acetate, Mes and Tris pH 5.0. The note with it: 37 C, up to 24hr.
The test system of another data set is P-2 enzyme (peak B). Description: P-2 enzyme (peak B) further purified on Superose 6HR (17.5 ug/ml) in acetate, Mes and Tris pH 5.0. As to conditions: human, 37 C, up to 24hr.
A further data set concerns P-2 peak B enzyme. The data set is described as follows: P-2 peak B enzyme (7.5 ug/ml), sodium chloride (75 mM), 135 mM in each of tris, Mes and acetate buffer pH 5.0. The note with it: human, 37 C.
Data set [4] can be described thus: Mono-Q ion-exchange fractions of P-2, S and M subfractions of control and AD human cortex. The note with it: 37°C, up to 24 hrs.

“Also recorded” adds a separate entry of the source.

Protocol for C286.8A: Following incubation for 60 min at room temperature, plates were washed, and the amount of bound antibody determined by development with horseradish peroxidase-coupled goat-anti mouse polyclonal antibody according to standard procedures (Wunderlich et al., 1992, J. of Immunol. Methods 147:1). Percent competition (% C) of antibody binding to the plate was calculated from the absorbance at 450 nm data using the following equation: % C = 1.0 -(O.D. (+ competitor) - O.D. blank)/(O.D. (- competitor) - O.D. blank)X 100 [formula]

With “597-624: Synthetic peptide containing amino acids 597-624 of human APP695; amino acids 1-28 of the beta-amyloid sequence (LTETKTTVELLPVNGEFSLDDLQPWHSF; isoform APP695; UniProt P05067 597-624, looked up, fragment)”, in the data set on C286.8A, the “ability to block binding of C286.8A to APP 597-638” value (“ability to block binding of C286.8A” below) is listed as “able to inhibit C286.8A binding in a dose-dependent fashion”.

Take “597-638: Synthetic peptide containing amino acids 597-638 of human APP695; amino acids 1-42 of the beta-amyloid sequence”: in the data set with C286.8A, the “ability to block binding of C286.8A” value is “able to inhibit C286.8A binding in a dose-dependent fashion”.

`CC(C)CC(NC(=O)C1OC1C(=O)O)C(=O)NCCCCN=C(N)N` (stereo not shown) [E-64]: the “Inhibitor sensitivity of the pool Y protease (APP degradation)” value (“Inhibitor sensitivity” for short) in data set [1] (350 uM E-64, Mes pH 6.5, 4 hr, Figure 18a) was “unaffected”.

In the case of `O=S(=O)(F)Cc1ccccc1` [PMSF], the “Inhibitors (pH 6.5): compounds causing complete inhibition are listed” value in data set [2] (11.5 kDa fragment) and in data set [2] (>11.5 kDa fragment) was “PMSF” in each case. For the same compound, the “Inhibitor sensitivity” value in data set [1] (860 uM PMSF in methanol, Mes pH 6.5, 4 hr, Figure 18a) was “inhibited”.

Consider `Cc1ccc(S(=O)(=O)N[C@@H](CCCCN)C(=O)CCl)cc1` [TLCK], for which the “Inhibitor sensitivity” value in data set [1] (156 uM TLCK, Mes pH 6.5, 2 hr, Figure 18b) is listed as “did not inhibit at all”.

`Cc1ccc(S(=O)(=O)N[C@@H](Cc2ccccc2)C(=O)CCl)cc1` [TPCK]: the “Inhibitor sensitivity” value in data set [1] (153 uM methanolic TPCK, Mes pH 6.5, 2 hr, Figure 18b) was “strongly inhibited”.

On to `N=C(N)c1ccccc1` [benzamidine], for which, in data set [1] (5 mM benzamidine, Mes pH 6.5, 4 hr, Figure 18a), the “Inhibitor sensitivity” value was “without effect”.

With `CC(C)C[C@H](NC(=O)[C@@H](NC(=O)N[C@@H](Cc1ccccc1)C(=O)O)[C@@H]1CCN=C(N)N1)C(=O)N[C@H](C=O)Cc1ccccc1` [chymostatin], in data set [1] (98 uM chymostatin administered in DMSO, Mes pH 6.5, 2 hr, Figure 18b), the “Inhibitor sensitivity” value was “Weak inhibition”.

For “APP 597-612: Synthetic peptide containing amino acids 597-612 of human APP695; amino acids 1-16 of the beta-amyloid sequence (LTETKTTVELLPVNGE; isoform APP695; UniProt P05067 597-612, looked up, fragment)”, in the data set on C286.8A, the “ability to block binding of C286.8A” value is recorded as “able to inhibit C286.8A binding in a dose-dependent fashion”.

Consider “APP 608-624: Synthetic peptide, amino acids 608-624 of human APP695; beta-amyloid peptide sequence 12-28 (PVNGEFSLDDLQPWHSF; isoform APP695; UniProt P05067 608-624, looked up, fragment)”, for which the “ability to block binding of C286.8A” value in the data set on C286.8A is “did not inhibit binding”.

Take “APP 621-631: Synthetic peptide, amino acids 621-631 of human APP695; beta-amyloid peptide sequence 25-35 (WHSFGADSVPA; isoform APP695; UniProt P05067 621-631, looked up, fragment)”: the “ability to block binding of C286.8A” value in the data set on C286.8A was “did not inhibit binding”.

Take “APP 645-695: Synthetic peptide, amino acids 645-695 of human APP695, C-terminal domain, devoid of any beta-amyloid sequence (AADRGLTTRPGSGLTNIKTEEISEVKMDAEFRHDSGYEVHHQKLVFFAEDV; isoform APP695; UniProt P05067 645-695, looked up, fragment)”: the “ability to block binding of C286.8A” value in the data set with C286.8A was “did not inhibit binding”.

Consider “N-Dansyl-Ile-Ser-Glu-Val-Lys-Met-Asp-Ala-Glu-Phe-Arg-NH2”, for which the cleaved bond entry with cathepsin D is “E-V and M-D”; in data set [3], “Glu-Val, major; also recorded: Met-Asp, minor”; in the data set on P-2 enzyme (peak B), “Met-Asp, minor; also recorded: Glu-Val, major”; in the data set on P-2 peak B enzyme, “E-V and M-D”.

For the compound “N-dansyl-Ile-Ser-Glu-Val-Lys-Met-Asp-Ala-Glu-Phe-Arg-His-Asp-Asp-Asp-Asp”, the cleaved bond result in data set [4] was “V-K, major and K-M and M-D and S-E and E-V”.

The values are drawn from patent EP0569777A2 (Bayer Corporation, priority 1992, dated 1993).
